Earlier results on four molecules are cited in publication PMC9510668 (Frontiers in Pharmacology, 2022).

Structures are written as SMILES. In brackets after ≈: the same amount, converted by molar mass. Where two headings read alike, the source gives them in different places.

For series [1] the following is noted: human; ref Heath et al., 2010; cited from earlier work.
Another series relates to VEGFR. The note with it: ref Heath et al., 2010; cited from earlier work.
The next series has as its target BCRP1. Further details: method as in ref [8] (a number printed in a supplementary file, which may have a reference list of its own: not looked up in the article's list). To be noted: lapatinib; ref [8]; cited from earlier work.
The subject of a further series is CYP3A5. Further details: method as in ref [6] (a number printed in a supplementary file, which may have a reference list of its own: not looked up in the article's list). To be noted: ref [6]; cited from earlier work.
The test system of series [2] is CYP3A4. The arrangement: method as in ref [6] (a number printed in a supplementary file, which may have a reference list of its own: not looked up in the article's list). To be noted: ref [6]; cited from earlier work.
The test system of a further series is P-gp. To be noted: lapatinib; ref [8]; cited from earlier work.
For series [3] the following is noted: cited from earlier work.
The conditions of series [4]: healthy human, mean, cited from earlier work.
For series [5] the following is noted: cited from earlier work. This is another data set of the same source.
A further series concerns OATP1B1. To be noted: lapatinib; ref [8]; cited from earlier work.
On the set-up of series [6]: method as in Röhss and Hedenström, 2002. To be noted: 40 mg OD orally for 5 days; ref Röhss and Hedenström, 2002; cited from earlier work.
Series [7] deals with CYP3A4. To be noted: read-out: Ki CYP3A4; ketoconazole; ref [1]; cited from earlier work.
In the next series the test system is UGT1A1. Further details: method as in ref [2] (a number printed in a supplementary file, which may have a reference list of its own: not looked up in the article's list). The note with it: ref [2]; cited from earlier work.

In the case of `Cc1c2ccc(N(C)c3ccnc(Nc4ccc(CO)c(S(N)(=O)=O)c4)n3)cc2nn1C` [GSK1268997], the “Systemic exposure relative to unchanged PAZ” value in [1] is on record as “about 2%”. For the same molecule, the “Potency towards VEGFR in comparison to PAZ” value in the series on VEGFR is given as “equal potency”.

The Ki is a dissociation constant, usually derived from enzyme kinetics or from competition with a known ligand. As for `CS(=O)(=O)CCNCc1ccc(-c2ccc3ncnc(Nc4ccc(OCc5cccc(F)c5)c(Cl)c4)c3c2)o1` [lapatinib], the inhibition constant (Ki) on BCRP1 was 25 nM; in the series on P-gp, 3900 nM; with OATP1B1 it was 4000 nM. Further, the “CPY3A5 CLint” value in the series with CYP3A5 is 5 µL/min/nmol. Besides, the “CPY3A4 CLint” value in the series on CYP3A4 [2] is 105 µL/min/nmol. In series [3] (lapatinib, ref [4]), the fup is reported as 0.01. Also, the Rbp in series [3] (lapatinib, ref [5]) is recorded as 0.84. The “AUC0-48, Observed” value in series [4] (lapatinib) is 5328.9 ng·h/mL. The “Cmax, Observed” value in series [4] (lapatinib) is 311.0 ng/mL. In [4] (lapatinib), the Tmax, Observed was 3 h. In series [5] (ref [3]), the “Water Solubility in FaSSIF pH=6.5” value is recorded as 5.4 μg/mL.

`COc1ccc2nc([S@@+]([O-])Cc3ncc(C)c(OC)c3C)[nH]c2c1` [esomeprazole]: the “Human intragastric mean 24-h pH” value in series [6] is reported as 4.78.

What is called Km is the substrate concentration at which the rate is half of its maximum. For `CC(=O)N1CCN(c2ccc(OCC3COC(Cn4ccnc4)(c4ccc(Cl)cc4Cl)O3)cc2)CC1` (stereo not drawn) [ketoconazole], in series [3] (ketoconazole, ref [1]), the Rbp was 0.59 and the fup is listed as […]. Also, in series [4] (ketoconazole), the “AUC0-48, Observed” value is […]; the “Cmax, Observed” value is […]; the Tmax, Observed was […]. Besides, in series [5] (@pH6.5, ref [1]), the Solubility in buffer is 6.93 µg/mL (≈ 13 µM). Besides, in series [5] (pH7.4, ref [1]), the “Log (@pH7.4), lipophilicity” value is 2.67. In addition, the Ki with CYP3A4 [7] was […]. Besides, in the series on UGT1A1, the Km was 22.3 µM and the “UGT1A1 Vmax” value is on record as 9.37 pmol/min/pmol.
